Experimental findings from patent publication US6926763B2, “Purine and isosteric antibacterial compounds” (GLSynthesis, Inc., priority 2002, dated 2005) are described below.

Molecules are shown by their SMILES. pKi: −log10 of the molar value. ≈ marks a conversion by molar mass, not a printed value. Where two headings read alike, the source gives them in different places. Where only a bound is given, the exact number is not on record here.

One data set can be described thus: in vitro. In kind it is in vitro ADME. To be noted: human, Caco-2. The source says:
Table 2 summarizes the results of cell membrane permeability assays of representative compounds of the invention. The assay utilizes CaCo2 cell culture monolayers, described by Artursson and Kalsson, Biochem. Biophys. Res.

In a further data set the test system is Enterococcus fecium. Kind of data set: Inhibition of bacterial growth (agar plate MIC), E. fecium. Format: cell-based. The following applies: agar plates, 37° C., 24 hours; for MIC: Enterococcus. How it is done: (§1) Antimicrobial efficacy may be determined by standard methods of microbial culture in growth medium or on plates of agar supplemented with appropriate growth media. For example, microbes, e.g., mycoplasmata or Gram-positive or Gram-negative bacteria, are grown in the presence of serial dilutions of compounds in an appropriate vehicle, and, after a suitable period of growth, the microbial density is measured by visual or instrumental means. The concentration of compound at which no growth occurs is the minimum inhibitory concentration (MIC) of the compound. Test compounds with an appropriate level of growth inhibition are good candidate therapeutics for further evaluation.
(§2) Each compound was assayed against a panel of Gram-positive Bacilli, Enterococci, and Staphylococci, and Gram-negative Escherichia coli, grown in appropriate plate media solidified with 1.3% agar-agar. […] One tenth mL of diluted bacteria containing 500-1000 colony-forming units (CFU) were plated and spread, and the plates were incubated at 37° C. for 24 hours. MIC (minimum inhibitory concentration) was equivalent to the lowest concentration at which growth, i.e. colony formation, was not observed.

In a further data set the test system is Enterococcus fecalis. As to the kind of experiment: Inhibition of bacterial growth (agar plate MIC), E. fecalis. In kind it is cell-based. To be noted: agar plates, 37° C., 24 hours; for MIC: Enterococcus. How it is done:
as §1, §2

The next data set addresses B.s. pol IIIE (Bacillus subtilis, UniProt O34623). As to the kind of experiment: biochemical. In kind it is biochemical. How it is done:
(§3) The ability of a test compound to inhibit the activity of DNA pol IIIC or pol IIIE enzymes can be tested by using a DNA polymerase assay as described, for example, in Barnes and Brown, Nucl. […] This rapid screening method can use natural or recombinant DNA pol III enzymes in a standard DNA polymerase activity assay. By including a test compound in a side-by-side assay with a control, the effect of the test compound on polymerase activity can be assessed.
(§4) DNA pol III activity was assayed as described in Barnes et al., Nucl.
(§5) Purified pol IIIC or pol IIIE was added to a buffered solution containing Mg^2+, DTT, glycerol, nicked calf thymus DNA, saturating concentrations of dATP, dCTP, dTTP and [^3H]-dTTP. Reaction mixtures were incubated at 30° C. for 10 min, quenched and filtered, and radioactivity in the acid-insoluble material measured by scintillation counting. Experiments were done in triplicate. Inhibitors were assayed by addition of several dilutions of a stock solution of inhibitor (DMSO or water, depending on solubility) before enzyme addition. […] The truncated assay, i.e., exclusion of the competitive substrate dGTP allows for the direct determination of apparent inhibitor constants (Ki) in this assay system.

Another data set has as its target B.s. pol IIIC (Bacillus subtilis, UniProt P13267). Kind of data set: biochemical. In kind it is biochemical. How it is done:
as §3, §4, §5

The subject of the next data set is MRSA (B42876). Kind of data set: Inhibition of bacterial growth (agar plate MIC), MRSA (B42876). In kind it is cell-based, methicillin-resistant S.a. The following applies: agar plates, 37° C., 24 hours; for MIC: Staphylococcus aureus, MRSA. The method, then:
as §1, §2

The next data set has as its target E.c. pol IIIE (Escherichia coli, UniProt P10443). As to the kind of experiment: biochemical. The following applies: for Ki, E.c. pol IIIE: truncated assay without dGTP, apparent Ki. The method, then:
as §3, §4, §5

Another data set deals with Staphylococcus aureus. Kind of data set: Inhibition of bacterial growth (agar plate MIC), S.a. Format: cell-based. The following applies: agar plates, 37° C., 24 hours; for MIC: Staphylococcus aureus. How it is done: as §1, §2
Data set [1] has as its system vancomycin-resistant E. fecium. Kind of data set: Inhibition of bacterial growth (agar plate MIC), VRE. Format: cell-based, Enterococcus fecium. The following applies: agar plates, 37° C., 24 hours; for MIC: Enterococcus, VRE. The method, then: as §1, §2
For another data set, the system named is Bacillus subtilis. Kind of data set: Inhibition of bacterial growth (agar plate MIC), B.s. Format: cell-based. The following applies: agar plates, 37° C., 24 hours; for MIC: Bacillus subtilis. The method, then: as §1, §2
The next data set relates to S.a. (Smith). As to the kind of experiment: Inhibition of bacterial growth (agar plate MIC), S.a. (Smith). In kind it is cell-based, Staphylococcus aureus. To be noted: agar plates, 37° C., 24 hours; for MIC: Staphylococcus aureus. How it is done: as §1, §2

Sequence of B.s. pol IIIE (O34623 whole entry): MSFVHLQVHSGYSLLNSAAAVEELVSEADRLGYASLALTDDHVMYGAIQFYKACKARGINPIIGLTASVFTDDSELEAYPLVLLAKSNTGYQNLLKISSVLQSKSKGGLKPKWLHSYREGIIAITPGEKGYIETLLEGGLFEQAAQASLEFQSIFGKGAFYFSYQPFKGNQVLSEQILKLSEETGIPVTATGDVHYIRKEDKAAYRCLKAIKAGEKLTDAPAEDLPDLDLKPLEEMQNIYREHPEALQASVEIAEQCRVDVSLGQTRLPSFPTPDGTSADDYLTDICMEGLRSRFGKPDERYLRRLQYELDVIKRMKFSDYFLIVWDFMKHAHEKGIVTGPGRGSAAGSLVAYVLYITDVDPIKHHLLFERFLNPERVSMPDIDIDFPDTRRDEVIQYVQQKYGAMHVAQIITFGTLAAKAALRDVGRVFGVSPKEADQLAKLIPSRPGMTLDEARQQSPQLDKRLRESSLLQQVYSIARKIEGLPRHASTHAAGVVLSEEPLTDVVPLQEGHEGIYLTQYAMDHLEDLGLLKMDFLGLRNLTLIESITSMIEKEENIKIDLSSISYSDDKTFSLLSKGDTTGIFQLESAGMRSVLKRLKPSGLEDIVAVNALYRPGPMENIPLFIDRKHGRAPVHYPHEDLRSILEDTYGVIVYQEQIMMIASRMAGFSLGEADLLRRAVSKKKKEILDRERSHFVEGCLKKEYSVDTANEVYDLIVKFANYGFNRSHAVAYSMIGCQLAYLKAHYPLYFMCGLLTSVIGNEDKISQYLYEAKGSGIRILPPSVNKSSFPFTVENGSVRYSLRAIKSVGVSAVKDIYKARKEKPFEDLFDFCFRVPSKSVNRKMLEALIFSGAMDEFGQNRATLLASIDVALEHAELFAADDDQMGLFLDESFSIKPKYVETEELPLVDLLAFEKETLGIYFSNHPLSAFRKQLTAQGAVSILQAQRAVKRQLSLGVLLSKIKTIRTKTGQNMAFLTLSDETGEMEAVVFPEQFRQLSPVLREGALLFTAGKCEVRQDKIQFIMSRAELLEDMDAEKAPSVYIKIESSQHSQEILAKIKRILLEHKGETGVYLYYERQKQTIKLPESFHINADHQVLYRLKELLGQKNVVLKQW
Sequence of B.s. pol IIIC (P13267 whole entry): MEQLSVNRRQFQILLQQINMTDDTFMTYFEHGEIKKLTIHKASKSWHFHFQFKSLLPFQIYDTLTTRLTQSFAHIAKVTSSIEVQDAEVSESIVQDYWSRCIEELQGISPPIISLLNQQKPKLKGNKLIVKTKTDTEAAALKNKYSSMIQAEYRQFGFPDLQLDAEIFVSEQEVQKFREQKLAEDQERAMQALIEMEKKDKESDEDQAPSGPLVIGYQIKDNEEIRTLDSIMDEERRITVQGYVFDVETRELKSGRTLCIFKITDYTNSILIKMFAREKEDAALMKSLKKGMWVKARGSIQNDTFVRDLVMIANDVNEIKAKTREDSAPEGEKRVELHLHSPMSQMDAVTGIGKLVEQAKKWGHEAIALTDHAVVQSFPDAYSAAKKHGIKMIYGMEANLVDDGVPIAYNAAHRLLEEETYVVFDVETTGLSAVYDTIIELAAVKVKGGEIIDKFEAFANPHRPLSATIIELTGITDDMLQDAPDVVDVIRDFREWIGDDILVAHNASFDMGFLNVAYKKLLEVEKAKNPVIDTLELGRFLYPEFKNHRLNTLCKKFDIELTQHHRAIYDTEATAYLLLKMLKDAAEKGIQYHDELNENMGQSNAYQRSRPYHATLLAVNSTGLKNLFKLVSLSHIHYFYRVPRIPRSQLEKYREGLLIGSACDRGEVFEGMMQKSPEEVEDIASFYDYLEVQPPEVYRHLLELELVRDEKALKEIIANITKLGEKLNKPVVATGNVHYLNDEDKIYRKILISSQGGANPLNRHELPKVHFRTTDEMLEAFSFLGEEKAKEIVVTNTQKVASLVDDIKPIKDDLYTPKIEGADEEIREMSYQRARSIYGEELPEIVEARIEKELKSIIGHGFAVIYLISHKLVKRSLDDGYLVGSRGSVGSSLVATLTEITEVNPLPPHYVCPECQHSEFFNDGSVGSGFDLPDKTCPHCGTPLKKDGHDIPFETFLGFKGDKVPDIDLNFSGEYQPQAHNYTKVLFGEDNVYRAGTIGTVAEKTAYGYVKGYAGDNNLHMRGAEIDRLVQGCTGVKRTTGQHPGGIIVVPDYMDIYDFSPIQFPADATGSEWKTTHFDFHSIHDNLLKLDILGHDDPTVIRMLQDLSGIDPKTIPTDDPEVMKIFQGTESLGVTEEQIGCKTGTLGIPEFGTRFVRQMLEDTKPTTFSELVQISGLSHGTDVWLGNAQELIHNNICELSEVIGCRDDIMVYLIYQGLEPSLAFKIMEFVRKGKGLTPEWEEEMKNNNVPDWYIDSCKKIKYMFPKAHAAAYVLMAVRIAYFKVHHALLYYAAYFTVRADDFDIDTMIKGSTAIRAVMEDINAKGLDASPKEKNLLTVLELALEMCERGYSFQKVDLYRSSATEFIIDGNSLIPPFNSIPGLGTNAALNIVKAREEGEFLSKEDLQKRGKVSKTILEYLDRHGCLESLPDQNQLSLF
Sequence of E.c. pol IIIE (P10443 whole entry, the tested form may be a part): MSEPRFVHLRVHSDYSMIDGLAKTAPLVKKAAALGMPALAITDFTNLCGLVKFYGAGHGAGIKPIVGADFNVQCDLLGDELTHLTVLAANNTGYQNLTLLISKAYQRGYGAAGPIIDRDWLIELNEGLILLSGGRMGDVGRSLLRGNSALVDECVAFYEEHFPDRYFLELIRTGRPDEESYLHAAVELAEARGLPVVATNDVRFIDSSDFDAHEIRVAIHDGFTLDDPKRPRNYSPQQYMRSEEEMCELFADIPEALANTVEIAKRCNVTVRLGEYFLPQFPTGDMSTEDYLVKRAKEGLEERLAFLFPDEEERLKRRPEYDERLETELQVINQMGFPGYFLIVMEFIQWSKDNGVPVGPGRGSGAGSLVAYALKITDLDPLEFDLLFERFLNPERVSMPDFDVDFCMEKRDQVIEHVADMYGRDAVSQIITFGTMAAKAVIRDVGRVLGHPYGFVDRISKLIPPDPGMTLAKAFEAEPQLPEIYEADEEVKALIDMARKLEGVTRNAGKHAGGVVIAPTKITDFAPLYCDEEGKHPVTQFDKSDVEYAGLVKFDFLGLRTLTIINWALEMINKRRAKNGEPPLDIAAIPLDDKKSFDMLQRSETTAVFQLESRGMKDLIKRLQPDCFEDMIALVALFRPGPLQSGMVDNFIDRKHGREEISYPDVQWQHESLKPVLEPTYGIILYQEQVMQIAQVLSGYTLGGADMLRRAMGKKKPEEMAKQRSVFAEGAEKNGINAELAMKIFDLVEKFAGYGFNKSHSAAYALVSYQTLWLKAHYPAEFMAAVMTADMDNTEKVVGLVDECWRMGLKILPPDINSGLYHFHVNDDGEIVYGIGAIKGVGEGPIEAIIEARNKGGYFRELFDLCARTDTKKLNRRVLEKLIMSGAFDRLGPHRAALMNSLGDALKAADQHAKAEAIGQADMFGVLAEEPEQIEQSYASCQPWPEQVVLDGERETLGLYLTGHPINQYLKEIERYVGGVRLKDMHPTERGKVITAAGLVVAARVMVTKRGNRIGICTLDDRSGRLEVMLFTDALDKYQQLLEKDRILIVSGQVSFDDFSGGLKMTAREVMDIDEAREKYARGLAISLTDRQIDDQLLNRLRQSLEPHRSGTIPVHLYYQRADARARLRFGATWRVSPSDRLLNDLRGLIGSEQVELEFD

In general, Papp refers to a coefficient for how fast a substance crosses the barrier. The low end stands for poor permeation, the high end for ready permeation. The MIC is the lowest concentration that inhibits growth of the organism. Higher therefore signals weaker potency. Usually pKi stands for the negative decadic logarithm of the Ki, by convention in mol/L. For the molecule `COCCCCCn1cnc2cc(NCc3ccc(Cl)c(Cl)c3)[nH]c(=O)c21` [Compound 3, 2-(3,4-Dichlorobenzylamino)-6-oxo-7-(5-methoxypentyl)-3-deazapurine], the Papp in “in vitro” stood at 13.8 ×10⁻⁶ cm/s. In addition, the MIC against Enterococcus fecium came to 1.25 µg/mL (≈ 3.05 µM); against Enterococcus fecalis, 5 µg/mL (≈ 12.2 µM); against MRSA (B42876) it was 2.5 µg/mL (≈ 6.11 µM). Besides, the pKi was 6.38 at B.s. pol IIIE, 6.80 at B.s. pol IIIC and 4.09 at E.c. pol IIIE.
In the case of `COCCCCn1c(C)nc2cc(NCc3ccc(Cl)c(Cl)c3)[nH]c(=O)c21` [Compound 6, 2-(3,4-Dichlorobenzylamino)-6-oxo-7-(4-methoxybutyl)-8-methyl-3-deazapurine], the MIC amounted to 10 µg/mL (≈ 24.4 µM) in the data set with Enterococcus fecium; 10 µg/mL (≈ 24.4 µM) against Enterococcus fecalis; 7.5 µg/mL (≈ 18.3 µM) against MRSA (B42876); 10 µg/mL (≈ 24.4 µM) against Staphylococcus aureus; 10 µg/mL (≈ 24.4 µM) in data set [1]; 2.5 µg/mL (≈ 6.11 µM) in the data set on Bacillus subtilis. Also, in the data set with S.a. (Smith), the lowest concentration to inhibit growth (MIC) was 7.5 µg/mL (≈ 18.3 µM). For the same molecule, the figures for the pKi at B.s. pol IIIE, at B.s. pol IIIC and on E.c. pol IIIE were 5.60, 5.90 and 3.37, respectively.
On to `O=c1[nH]c(NCc2ccc(Cl)c(Cl)c2)nc2ncn(CCCCCI)c12` [Compound 13, 7-(5-Iodopentyl)-2-(3,4-dichlorobenzylamino)-6-oxopurine], for which the minimum inhibitory concentration (MIC) was 2.5 µg/mL (≈ 4.94 µM) against Enterococcus fecium; 2.5 µg/mL (≈ 4.94 µM) against Enterococcus fecalis; 1.25 µg/mL (≈ 2.47 µM) against MRSA (B42876); 3.7 µg/mL (≈ 7.31 µM) against Staphylococcus aureus; 2.5 µg/mL (≈ 4.94 µM) in [1]; 1.4 µg/mL (≈ 2.77 µM) against Bacillus subtilis. Besides, the MIC with S.a. (Smith) stood at 3.7 µg/mL (≈ 7.31 µM). The values for the pKi at B.s. pol IIIE, at B.s. pol IIIC and at E.c. pol IIIE were 7.06, 7.15 and 4.33, respectively.
As for `CCc1cc(Nc2cc3ncn(CCCCN4CCOCC4)c3c(=O)[nH]2)ccc1C` [Compound 16, 2-(3-Ethyl-4-methylphenylamino)-6-oxo-7-(4-morpholinylbutyl)-3-deazapurine], in the data set on Enterococcus fecium, the “MIC, E. fecium” value was 20 µg/mL (≈ 48.8 µM). Moreover, the “MIC, E. fecalis” value in the data set on Enterococcus fecalis was greater than 80 µg/mL. Also, at B.s. pol IIIE (truncated assay without dGTP, apparent Ki), the “Ki, B.s. pol IIIE” value is listed as “inact”. Further, the pKi on B.s. pol IIIC (truncated assay without dGTP, apparent Ki, read-out: Ki, B.s. pol IIIC) was 5.96. Moreover, in the data set with MRSA (B42876), the “MIC, MRSA (B42876)” value is 30 µg/mL (≈ 73.3 µM). Also, the “MIC, S.a.” value in the data set with Staphylococcus aureus was found to be 40 µg/mL (≈ 97.7 µM). For the same molecule, the “MIC, VRE” value in data set [1] is greater than 80 µg/mL. Moreover, in the data set with Bacillus subtilis, the “MIC, B.s.” value came out at 10 µg/mL (≈ 24.4 µM). The “MIC, S.a. (Smith)” value in the data set on S.a. (Smith) amounted to 40 µg/mL (≈ 97.7 µM). Moreover, at E.c. pol IIIE, the “Ki, E.c. pol IIIE” value was “inact”.
With `CCc1cc(Nc2cc3ncn(CCCCCOC)c3c(=O)[nH]2)ccc1C` [Compound 17, 2-(3-Ethyl-4-methylphenylamino)-6-oxo-7-(5-methoxypentyl)-3-deazapurine], in the data set “in vitro”, the Papp was found to be 39.6 ×10⁻⁶ cm/s. Besides, the MIC against Enterococcus fecium is 2.5 µg/mL (≈ 6.78 µM); against Enterococcus fecalis, greater than 80 µg/mL; against MRSA (B42876) it was 2.5 µg/mL (≈ 6.78 µM); against Bacillus subtilis, 1.25 µg/mL (≈ 3.39 µM). Besides, the pKi on B.s. pol IIIE was 3.31; at B.s. pol IIIC it was 6.16. At E.c. pol IIIE, the “Ki, E.c. pol IIIE” value is on record as “inact”.
